We go through ten compounds from patent publication US20180148418A1, “AMIDO-SUBSTITUTED CYCLOHEXANE DERIVATIVES” (Bayer Pharma Aktiengesellschaft, priority 2015, published 2018).

Assay [1] deals with wildtype Wnt signaling cascade. Put plainly: HEK293 TOP assay (Super TopFlash luciferase reporter, Wnt-3a stimulated). The format is cell-based. Particulars: Homo sapiens, HEK293, 16 h, HEK293 TOP reporter cells, Wnt3a at EC50, 16 hours. A digest of the protocol: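 HEK293 cells stably carrying Super TopFlash (TOP) run in parallel with FOP cells, 10000/well plated 24 h ahead, stimulated with recombinant human Wnt-3a. Compounds tested 50 μM to 15 nM in 3.16-fold steps in CAFTY buffer pH 7.4 with 2 mM Ca^2+ and 0.01% BSA; luciferase read-out.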
Background: A reporter such as luciferase makes a cellular process visible.

The next assay concerns the target T1, TNKS1 (Homo sapiens, UniProt O95271).
T1 construct: purchased BPS Bioscience, San Diego, USA 80579 (TNKS1 Histone Ribosylation Assay Kit)
T1 sequence (O95271 1-1327): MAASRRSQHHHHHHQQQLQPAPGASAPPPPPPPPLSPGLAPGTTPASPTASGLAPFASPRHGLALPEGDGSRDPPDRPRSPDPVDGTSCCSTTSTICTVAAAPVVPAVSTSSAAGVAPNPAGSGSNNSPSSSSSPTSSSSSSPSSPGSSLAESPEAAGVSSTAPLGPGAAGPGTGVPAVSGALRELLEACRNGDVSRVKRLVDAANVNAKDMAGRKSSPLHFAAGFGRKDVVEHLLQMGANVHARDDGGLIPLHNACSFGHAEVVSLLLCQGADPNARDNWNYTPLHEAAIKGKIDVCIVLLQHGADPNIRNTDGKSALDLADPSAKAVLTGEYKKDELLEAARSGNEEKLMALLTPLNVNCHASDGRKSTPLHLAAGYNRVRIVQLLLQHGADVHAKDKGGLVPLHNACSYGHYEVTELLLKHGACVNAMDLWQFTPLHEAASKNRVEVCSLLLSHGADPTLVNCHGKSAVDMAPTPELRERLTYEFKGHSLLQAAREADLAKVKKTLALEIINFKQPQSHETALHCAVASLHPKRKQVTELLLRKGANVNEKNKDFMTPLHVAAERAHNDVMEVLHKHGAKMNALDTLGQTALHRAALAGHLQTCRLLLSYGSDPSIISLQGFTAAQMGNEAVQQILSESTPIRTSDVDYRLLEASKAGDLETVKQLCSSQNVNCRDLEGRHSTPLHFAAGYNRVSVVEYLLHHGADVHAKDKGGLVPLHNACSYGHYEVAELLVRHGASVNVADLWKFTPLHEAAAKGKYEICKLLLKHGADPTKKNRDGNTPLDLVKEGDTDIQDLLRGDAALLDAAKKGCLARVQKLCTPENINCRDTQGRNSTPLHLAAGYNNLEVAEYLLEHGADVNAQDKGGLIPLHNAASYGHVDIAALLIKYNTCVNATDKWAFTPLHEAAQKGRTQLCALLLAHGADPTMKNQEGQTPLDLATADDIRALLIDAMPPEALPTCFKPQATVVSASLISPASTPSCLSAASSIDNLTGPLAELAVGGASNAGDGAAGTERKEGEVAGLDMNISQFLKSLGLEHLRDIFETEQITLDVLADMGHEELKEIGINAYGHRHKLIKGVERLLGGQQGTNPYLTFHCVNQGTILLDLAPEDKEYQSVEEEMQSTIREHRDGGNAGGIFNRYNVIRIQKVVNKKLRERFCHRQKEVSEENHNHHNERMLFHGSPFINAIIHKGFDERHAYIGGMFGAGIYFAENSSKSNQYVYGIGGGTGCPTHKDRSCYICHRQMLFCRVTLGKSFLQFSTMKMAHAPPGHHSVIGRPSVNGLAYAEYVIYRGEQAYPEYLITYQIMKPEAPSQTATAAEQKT
In words: TNKS1 Assay B (auto-parsylation, [3H]-NAD+ SPA). Format: biochemical. As to conditions: 6 nM TNKS1, auto-parsylation, over night at room temperature. As for the experimental part: The potency of selected compounds according to the invention was assessed applying a modified in vitro inhibition assay. Here, the TNKS1 catalyzed NAD^+-dependent ribosylation of the enzyme itself (auto-parsylation) was detected using [^3H]-NAD^+ as substrate and applying the scintillation proximity assay (SPA) method to detect tritium-labeled, parsylated TNKS1. The intensity of the readout signal is proportional to the incorporated [^3H]-NAD^+. Inhibition of TNKS1 leads to a decreased incorporation of [^3H]-NAD^+ and consequently to a lower readout signal intensity. The concentration of a test compound which inhibits the enzyme activity by 50% (corresponds to half of the normed readout signal intensity) is reported as IC50.
Protocol Auto-Parsylation Assay
The assay was conducted in a 96 well MTP format with the identical TNKS1 enzyme sample and NAD^+ sample as in the histone ribosylation assay with the following modifications: TNKS1 enzyme sample was diluted with a modified assay buffer (50 mM MES pH 7.0, 1 mM DTT, 0.01% Triton X-100) to a final concentration of 6 nM TNKS1 and 10×NAD^+ solution was diluted with the modified assay buffer (s. above) to a final 0.445×NAD^+ solution doped with 100 Bq/μl [^3H]-NAD^+[Catalog #NET443H050UC, Perkin Elmer, Waltham, Mass., USA]. Substrate solution (10 μl) was incubated with different test compound concentrations (2.5 ul in 10% DMSO in modified assay buffer) or control (2.5 ul 10% DMSO in modified assay buffer only) and enzyme (10 μl) over night at room temperature. Incorporated tritium was measured after addition of 50 μl SPA beads (1 mg/ml) [Catalog #RPNQ0095 20 mg/ml, Perkin Elmer, Waltham, Mass., USA; diluted 1:10 with Dulbecco's phosphate buffered saline, PBS Catalog #D8537, Sigma-Aldrich, Steinheim, Germany] and detection of the photon emission with a beta count plate reader [Wallac MicroBeta®, Perkin Elmer, Waltham, Mass., USA].

Assay [2] has as its system HEK293 cells cotransfected with the FOP control vector. Put plainly: HEK293 FOP assay (control reporter with non-functional TCF elements). Format: cell-based. Particulars: Homo sapiens, 16 hours. The gist of the method: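 Stable HEK293 line carrying FOP control reporter (randomized non-functional TCF sites, with pcDNA3), Geneticin-selected, plated 24 h before assay. Stimulated with recombinant human Wnt-3a (2500-5 ng/ml) and compounds 50 μM–15 nM (3.16-fold steps) in CAFTY buffer pH 7.4 with 2 mM Ca2+, 0.01% BSA, run parallel to TOP line.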

The target of a further assay is T2, TNKS2 (Homo sapiens, UniProt Q9H2K2).
T2 construct: purchased BPS Bioscience, San Diego, USA 80572 (TNKS2 Histone Ribosylation Assay Kit)
T2 sequence (Q9H2K2 1-1166): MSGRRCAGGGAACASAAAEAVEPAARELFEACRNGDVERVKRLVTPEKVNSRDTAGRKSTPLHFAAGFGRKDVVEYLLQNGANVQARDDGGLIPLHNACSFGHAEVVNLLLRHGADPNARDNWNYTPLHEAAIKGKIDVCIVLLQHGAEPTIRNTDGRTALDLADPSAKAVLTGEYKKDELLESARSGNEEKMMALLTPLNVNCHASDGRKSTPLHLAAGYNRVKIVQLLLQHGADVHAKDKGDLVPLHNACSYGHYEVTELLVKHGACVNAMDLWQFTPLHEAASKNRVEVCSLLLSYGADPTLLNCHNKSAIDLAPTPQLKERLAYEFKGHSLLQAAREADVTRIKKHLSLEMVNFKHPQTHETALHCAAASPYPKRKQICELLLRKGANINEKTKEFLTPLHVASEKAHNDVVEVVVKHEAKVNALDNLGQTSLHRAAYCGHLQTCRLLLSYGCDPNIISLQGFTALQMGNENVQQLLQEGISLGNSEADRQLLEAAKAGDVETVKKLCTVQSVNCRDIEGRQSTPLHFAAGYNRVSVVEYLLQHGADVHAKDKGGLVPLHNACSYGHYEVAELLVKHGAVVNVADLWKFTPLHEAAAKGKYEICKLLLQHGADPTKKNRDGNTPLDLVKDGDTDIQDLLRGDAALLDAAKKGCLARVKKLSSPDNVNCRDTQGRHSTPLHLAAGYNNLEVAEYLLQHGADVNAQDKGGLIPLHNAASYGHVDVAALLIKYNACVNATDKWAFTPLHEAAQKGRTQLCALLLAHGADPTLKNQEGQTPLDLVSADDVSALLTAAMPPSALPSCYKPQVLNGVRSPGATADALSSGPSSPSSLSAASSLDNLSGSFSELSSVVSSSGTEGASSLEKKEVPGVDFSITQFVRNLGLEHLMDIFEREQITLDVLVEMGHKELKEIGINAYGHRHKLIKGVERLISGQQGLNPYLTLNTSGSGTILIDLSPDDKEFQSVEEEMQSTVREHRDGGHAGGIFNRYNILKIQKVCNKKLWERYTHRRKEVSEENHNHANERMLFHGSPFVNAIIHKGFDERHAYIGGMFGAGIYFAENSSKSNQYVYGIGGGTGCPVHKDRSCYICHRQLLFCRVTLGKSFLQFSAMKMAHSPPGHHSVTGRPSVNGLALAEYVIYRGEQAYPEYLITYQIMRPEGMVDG
In words: TNKS2 Assay B (auto-parsylation, [3H]-NAD+ SPA). Format: biochemical. As to conditions: 6 nM TNKS2, auto-parsylation, over night at room temperature.

For the compound `O=C(N[C@H]1CC[C@H](C(=O)Nc2cc(N3CCOCC3)ccc2Cl)CC1)c1[nH]cnc1C(=O)N1CC(F)(F)C1` [Example 92, N-(trans-4-{[2-chloro-5-(morpholin-4-yl)phenyl]carbamoyl}cyclohexyl)-4-[(3,3-difluoroazetidin-1-yl)carbonyl]-1H-imidazole-5-carboxamide], the figures for the IC50 (in assay [1]; at TNKS1; in assay [2]) were 3200 nM, greater than 10000 nM and 21000 nM, respectively.
As to `O=C(N[C@H]1CC[C@@]2(CCN(c3ccccn3)C2=O)CC1)c1cnn2cccnc12` [Example 346, N-[(trans)-1-oxo-2-(pyridin-2-yl)-2-azaspiro[4.5]dec-8-yl]pyrazolo[1,5-a]pyrimidine-3-carboxamide], the IC50 is 59 nM in assay [1], no less than 50000 nM in assay [2] and 530 nM at TNKS2.
Turning to `O=C(N[C@H]1CC[C@@]2(CCN(c3ccc(F)cc3Cl)C2=O)CC1)c1nnc2cccnn12` [Example 347, N-[(trans)-2-(2-chloro-4-fluorophenyl)-1-oxo-2-azaspiro[4.5]dec-8-yl][1,2,4]triazolo[4,3-b]pyridazine-3-carboxamide], the values for the IC50 (in assay [1]; in assay [2]; against TNKS2) were 2400 nM, no less than 50000 nM and 4000 nM, respectively.
The like results for `CCc1cc(CC)n2ncc(C(=O)N[C@H]3CC[C@@]4(CCN(c5ccc(F)cc5Cl)C4=O)CC3)c2n1` [Example 348, N-[(trans)-2-(2-chloro-4-fluorophenyl)-1-oxo-2-azaspiro[4.5]dec-8-yl]-5,7-diethyl pyrazolo[1,5-a]pyrimidine-3-carboxamide] were, in that order, 1.8 nM, no less than 50000 nM and 9.2 nM.
The like results for `O=C(N[C@H]1CC[C@@]2(CCN(c3ccc(F)cc3Cl)C2=O)CC1)c1cnc2c(NCCC(F)(F)F)cc(Cl)nn12` [Example 349, 6-chloro-N-[(trans)-2-(2-chloro-4-fluorophenyl)-1-oxo-2-azaspiro[4.5]dec-8-yl]-8-[(3,3,3-trifluoropropyl)amino]imidazo[1,2-b]pyridazine-3-carboxamide] were, in that order, 14 nM, no less than 50000 nM and 43 nM.
As for `O=C(N[C@H]1CC[C@@]2(CCN(c3ccc(F)cc3Cl)C2=O)CC1)c1c[nH]c2nccnc12` [Example 350, N-[(trans)-2-(2-chloro-4-fluorophenyl)-1-oxo-2-azaspiro[4.5]dec-8-yl]-5H-pyrrolo[2,3-b]pyrazine-7-carboxamide], the IC50 is 1.2 nM in assay [1], no less than 50000 nM in assay [2] and 20 nM against TNKS2.
`COc1ccc(Cl)c(N2CC[C@]3(CC[C@@H](NC(=O)c4cnn5cccnc45)CC3)C2=O)c1` [Example 353, N-[(trans)-2-(2-chloro-5-methoxyphenyl)-1-oxo-2-azaspiro[4.5]dec-8-yl]pyrazolo[1,5-a]pyrimidine-3-carboxamide]: the IC50 is 7.2 nM in assay [1], 28000 nM in assay [2] and 27 nM against TNKS2.
The like results for `O=C(N[C@H]1CC[C@@]2(CCN(c3ccc(OC(F)(F)F)cc3Cl)C2=O)CC1)c1cnn2cccnc12` [Example 354, N-{(trans)-2-[2-chloro-4-(trifluoromethoxy)phenyl]-1-oxo-2-azaspiro[4.5]dec-8-yl}pyrazolo[1,5-a]pyrimidine-3-carboxamide] were, in that order, 15 nM, 19000 nM and 26 nM.
The like results for `O=C(N[C@H]1CC[C@@]2(CCN(c3cccs3)C2=O)CC1)c1cnn2cccnc12` [Example 361, N-[(trans)-1-oxo-2-(thiophen-2-yl)-2-azaspiro[4.5]dec-8-yl]pyrazolo[1,5-a]pyrimidine-3-carboxamide] were, in that order, 560 nM, no less than 50000 nM and 3900 nM.
The like results for `COC(=O)c1ccc(N2CC[C@]3(CC[C@@H](NC(=O)c4cnn5cccnc45)CC3)C2=O)c(Cl)c1` [Example 362, methyl 3-chloro-4-{(trans)-1-oxo-8-[(pyrazolo[1,5-a]pyrimidin-3-ylcarbonyl)amino]-2-azaspiro[4.5]dec-2-yl}benzoate] were, in that order, 3.9 nM, 31000 nM and 33 nM.

Usually IC50 stands for the concentration needed to halve the response being measured.
